Measurements: patent US5155099A, “Alkylphosphonoserines and pharmaceutical compositions useful as cytostatic agents” (Hafslund Nycomed Pharma Aktiengesellschaft, priority 1988, dated 1992)

Tested on: Ehrlich ascites tumor cells
Experiment: Concentration-dependent inhibition of growth of Ehrlich ascites tumor cells (antiproliferative action)
Assay type: cell-based
Text: The novel alkylphosphonoserines have a strong cytostatic and virustatic action. In order to determine the cytostatic action, the antiproliferative action was investigated in Ehrlich ascites tumor cells. It can be seen here that the compounds according to the invention have excellent cytostatic action. They can therefore be employed as cytostatics or virustatics, alone or in a mixture with other active substances, in the form of customary pharmaceutical preparations.
Concentration-dependent Inhibition of Growth of Ehrlich Ascites Tumor Cells

`CCCCCCCCCCCCCCCCP(=O)(O)OC[C@H](N)C(=O)O` [n-Hexadecyl phosphono-L-serine, n-Hexadecylphosphono-L-serine] gave an inhibition at 100 µM (Concentration 1 × 10^-4 M) of 89%, an inhibition at 10 µM (Concentration 1 × 10^-5 M) of 13% and an inhibition at 30 µM (Concentration 3 × 10^-5 M) of 45%. It also gave an inhibition at 3 µM (Concentration 3 × 10^-6 M) of 9%.
